From patent US10695310B2, “D-serine treatment for neurological disorders that cause seizures” (Florida State University Research Foundation, Inc., priority 2013, dated 2020)

Columns and labels:
[1] = system: GluN3-containing triheteromeric NMDARS; experiment: NMDAR-mediated EPSC at L1 synapses; format: cell-based, Sprague-Dawley rats; settings: 10 and 100 micromolar; pure NMDAR-mediated EPSC, +30 mV; suppression greatest at the higher concentration
Source text: (§1) FIG. 6 is a set of graphs showing the effect of D-serine on EPSCs for L1 and Str synapses of rat brains. The left panel depicts the average consecutive records (≤10) of pure NMDAR-mediated EPSC (pharmacologically isolated in a mixture containing NBQX and picrotoxin—PTX 50 micromolar, —to block AMPA-kainite receptors and GABAA-mediated inhibition) evoked in a single neuron (+30 mV) under the indicated conditions. The middle panel depicts the average percentage change in amplitude for both responses and the time course of these changes with D-serine administration times marked by the shaded region on the time plots.
(§2) The NMDARs at L1 inputs are GluN3-containing triheteromeric NMDARS, whereas the NMDARs at Str inputs are conventional diheteroemric NMDARs. To directly investigate Ca(2+)-permeability of NMDARs at L1 and Str synapses of Sprague-Dawley rats, shifts in reversal potential (Erev) of the synaptically activated currents were measured during local perfusion of isosmotic solutions with different extracellular Ca(2+) concentrations.

[2] = target: T1, conventional diheteroemric NMDARs (Rattus norvegicus, UniProt P35439); experiment: NMDAR-mediated EPSC at Str synapses; format: cell-based, Sprague-Dawley rats; settings: 10 and 100 micromolar; pure NMDAR-mediated EPSC, +30 mV
T1 construct: effect of D-serine on EPSCs for L1 and Str synapses of rat brains; from tissue; host or cells: rat brain; synaptic currents recorded from single neurons (Str input)
Source text: as §1, §2

[3] = system: LIII of the medial entorhinal cortex; experiment: Stereological cell count in LIII of the medial entorhinal cortex, Nissl-stained brain slices of pilocarpine treated rats; format: in vivo, Sprague-Dawley rats
Procedure: (§3) Male Sprague-Dawley rats weighing about 200 grams were treated with a single systemic treatment of the cholinergic muscarinic agonist pilocarpine to mimic temporal lobe epilepsy as described by Kumar and Buckmaster in Journal of Neuroscience 26: 4613-4623 (2006), which is incorporated by reference herein. The rats were unilaterally implanted with a brain cannula and allowed to recover for three days prior to being treated with pilocarpine. The pilocarpine dose was 380 mg/kg. Following control of status epilepticus with diazepam and a latent period, 90% of the pilocarpine treated rats developed chronic spontaneous seizures with an underlying pathology that mimicked the kind seen in human patients with temporal lobe epilepsy. After pilocarpine treatment, a test group of rats was administered D-serine and a control group of rats was administered aCSF daily for 12 days. The first administration occurred two hours after pilocarpine treatment. The rats were video-monitored forty hours per week for frank seizure activity for the duration of the infusions. Following the treatment regimen, the rats were euthanized and their brains removed following intra-aortal perfusion with a fixative. Horizontal brain slices 50 micrometers thick from both groups were Nissl-stained for stereological quantification of cell populations in LIII of the medial entorhinal cortex.

pilocarpine treated rats = experiment: Video-monitored seizure activity in pilocarpine treated rats (temporal lobe epilepsy model), D-serine infused at the medial entorhinal cortex; format: in vivo, Sprague-Dawley rats
Procedure: as §3, with “infusions.” for “infusions. Following the treatment regimen, the rats were euthanized and their brains removed following intra-aortal perfusion with a fixative. Horizontal brain slices 50 micrometers thick from both groups were Nissl-stained for stereological quantification of cell populations in LIII of the medial entorhinal cortex.”

SMILES: N[C@H](CO)C(=O)O [D-serine]
- effect on L1 EPSCs [1]: significantly suppressed
- effect on Str EPSCs [2]: neither consistent nor statistically significant
- Mean est. cell count (left + right) ([3]; LIII of medial entorhinal cortex, after 12 days treatment following pilocarpine, naive control 159 ± 21, vehicle 77 ± 1): 140 ± 10
- reduction of cell loss in LIII ([3]; after pilocarpine treatment): about 80%
- cell loss in LIII from brain slice images ([3]; left medial entorhinal cortex of cannulated rats, FIG. 3): prevented cell loss in LIII
- percentage of pilocarpine treated rats that developed seizures (pilocarpine treated rats; D-serine daily for 12 days, 90% without D-serine): 25%
- rats seizure-free (pilocarpine treated rats; pilocarpine treated rats, D-serine daily for 12 days via brain cannula, video-monitored forty hours per week): 75%
